These results are taken from PubChem BioAssay (NCI).

Structures are written as SMILES. Several values for one entry are separate records, joined by “and”; a condition that tells them apart may be missing. Equal values may be shown once.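 Five concentrations, 48 hours, 96-well plates. The concentration for 50% growth inhibition is given as GI50. TGI: concentration producing complete growth inhibition.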

Some test systems named below: SK-MEL-2 melanoma; CAKI-1 renal; M14 melanoma; HS 578T breast; CCRF-CEM leukemia; SK-MEL-5 melanoma; MCF7 breast; K-562 leukemia.
Holding throughout (test): inhibition of tumour cell growth, NCI panel, 48 h

As to `NC(=O)C/C=C/CC(N)=O`, the TGI in the assay on SK-MEL-2 melanoma, in the assay on CAKI-1 renal, with M14 melanoma, in the assay with HS 578T breast, in the assay with CCRF-CEM leukemia and in the assay with SK-MEL-5 melanoma was greater than 100 µM in each case. In addition, the TGI in the assay on MCF7 breast is greater than 100 µM.
Turning to `CCOC(=O)c1cc2c(n1Cc1cccc(OC)c1)-c1oncc1CC2`, the GI50 was 0.343 µM in the assay on K-562 leukemia; 1110 nM with SK-MEL-2 melanoma; 432 nM with M14 melanoma; 0.742 µM in the assay on HS 578T breast; 1.43 µM in the assay on CCRF-CEM leukemia; 595 nM in the assay with SK-MEL-5 melanoma. Further, the GI50 in the assay on MCF7 breast is 0.487 µM. The TGI was greater than 100 µM with K-562 leukemia; greater than 100 µM in the assay on SK-MEL-2 melanoma; 35.3 µM in the assay on M14 melanoma; 8.16 µM with HS 578T breast; greater than 100 µM in the assay with CCRF-CEM leukemia; 11.3 µM in the assay with SK-MEL-5 melanoma. The TGI in the assay with MCF7 breast was greater than 100 µM.
Take `CCOP1(=O)OCC2OC(n3cnc4c(N)ncnc43)C(O)C2O1` (configuration not stated): the TGI in the assay with K-562 leukemia, with SK-MEL-2 melanoma, in the assay with CAKI-1 renal, in the assay on M14 melanoma, in the assay on HS 578T breast and in the assay with SK-MEL-5 melanoma was greater than 100 µM in each case. Besides, in the assay with MCF7 breast, the TGI is greater than 100 µM.
On to `Nc1nc2nc3c(nc2c(=O)[nH]1)CN(c1ccc(C(=O)O)cc1)C3=O`, for which the TGI in the assay on K-562 leukemia, in the assay with SK-MEL-2 melanoma, in the assay on CAKI-1 renal, in the assay with M14 melanoma, in the assay with HS 578T breast and in the assay with SK-MEL-5 melanoma was greater than 100 µM throughout. The same molecule yielded a TGI with MCF7 breast greater than 100 µM.
Regarding `COc1ccc(NC(=O)c2ccc(NC3=C(Cl)C(=O)N(Cc4ccccc4)C3=O)cc2)cc1`, the GI50 was 4.02 µM in the assay with K-562 leukemia; 10400 nM in the assay with SK-MEL-2 melanoma; 1.89 µM in the assay with CAKI-1 renal; 9420 nM in the assay with M14 melanoma; 15 µM in the assay on HS 578T breast; 10000 nM in the assay on SK-MEL-5 melanoma. Besides, the GI50 in the assay on MCF7 breast was 7.9 µM. The TGI in the assay on K-562 leukemia is 64.8 µM; in the assay with SK-MEL-2 melanoma it was 56.1 µM; in the assay on CAKI-1 renal, 3.5 µM; in the assay on M14 melanoma, 28.6 µM; with HS 578T breast, 62.9 µM; in the assay on SK-MEL-5 melanoma, 32.1 µM. In the assay on MCF7 breast, the TGI was greater than 100 µM.
For the molecule `CCN(CC)CCn1c(=N)n(CC(O)c2ccc(Cl)c(Cl)c2)c2ccccc21` (configuration not stated), the GI50 with K-562 leukemia is 2.33 µM; in the assay on SK-MEL-2 melanoma, 2930 nM; with CAKI-1 renal, 11.8 µM; with M14 melanoma, 2070 nM; in the assay on HS 578T breast, 4.25 µM; in the assay with SK-MEL-5 melanoma it was 1730 nM. In addition, the GI50 in the assay on MCF7 breast is 2.83 µM. In addition, the TGI stood at 6.36 µM in the assay on K-562 leukemia; 8.32 µM in the assay on SK-MEL-2 melanoma; 25.1 µM in the assay on CAKI-1 renal; 3.74 µM in the assay with M14 melanoma; 21.2 µM with HS 578T breast; 3.15 µM in the assay on SK-MEL-5 melanoma. This molecule also registered a TGI in the assay on MCF7 breast of 8.56 µM.
With `COC1CC(OC2OC(CO)C(O)C(O)C2O)/C(=C\C#N)C(O)C1OC` (configuration not stated), the TGI with SK-MEL-2 melanoma, with CAKI-1 renal, in the assay on M14 melanoma, with HS 578T breast, in the assay on CCRF-CEM leukemia and in the assay on SK-MEL-5 melanoma was greater than 100 µM each time. This molecule had a TGI in the assay on MCF7 breast greater than 100 µM.
For the molecule `CC(C)Oc1cc(OCC(=O)O)cc(C(=O)N(CCC(N)=O)C(=O)Nc2ccc(C(=O)O)cc2OC(C)C)c1`, the GI50 was greater than 100 µM in the assay on K-562 leukemia; greater than 100000 nM in the assay with SK-MEL-2 melanoma; greater than 100000 nM in the assay with M14 melanoma; greater than 100 µM in the assay on HS 578T breast; greater than 100 µM in the assay with CCRF-CEM leukemia; greater than 100000 nM in the assay on SK-MEL-5 melanoma. In the assay with MCF7 breast, the GI50 was greater than 100 µM. Moreover, the TGI in the assay with K-562 leukemia, in the assay on SK-MEL-2 melanoma, with M14 melanoma, in the assay on HS 578T breast, in the assay on CCRF-CEM leukemia and in the assay with SK-MEL-5 melanoma was greater than 100 µM each time. The same molecule had a TGI in the assay on MCF7 breast greater than 100 µM.
Take `Cc1nc2c(cnn2-c2ccnc3c(C(F)(F)F)cccc23)c(=O)o1`: the GI50 is greater than 100 µM in the assay on K-562 leukemia; greater than 100000 nM with SK-MEL-2 melanoma; greater than 100 µM in the assay on CAKI-1 renal; greater than 100 µM in the assay with HS 578T breast; greater than 100 µM in the assay on CCRF-CEM leukemia; greater than 100000 nM in the assay with SK-MEL-5 melanoma. For the same molecule, the GI50 in the assay on MCF7 breast is greater than 100 µM. Also, the TGI in the assay on K-562 leukemia, in the assay on SK-MEL-2 melanoma, in the assay with CAKI-1 renal, in the assay on HS 578T breast, in the assay with CCRF-CEM leukemia and in the assay with SK-MEL-5 melanoma was greater than 100 µM each time. In the assay on MCF7 breast, this molecule had a TGI greater than 100 µM.
Regarding `O=C1CCCC1C(=O)Nc1ccc2ccccc2c1` (configuration not stated), the TGI with K-562 leukemia, with SK-MEL-2 melanoma, in the assay with CAKI-1 renal, in the assay with M14 melanoma, with CCRF-CEM leukemia and in the assay on SK-MEL-5 melanoma was greater than 100 µM in each case. The molecule also came in with a TGI in the assay with MCF7 breast greater than 100 µM.
Consider `COc1ccc(C2SC(N)=Nc3c2c(C)nn3C(=O)c2ccncc2)cc1` (configuration not stated), for which the TGI in the assay with K-562 leukemia, in the assay with SK-MEL-2 melanoma, in the assay on M14 melanoma, in the assay on HS 578T breast, in the assay with CCRF-CEM leukemia and in the assay on SK-MEL-5 melanoma was greater than 100 µM in each case. In addition, in the assay with MCF7 breast, the TGI is greater than 100 µM.
Consider `CCc1nc(N)nc(N)c1-c1ccc(Cl)cc1`, for which the TGI was greater than 26.5 µM in the assay on K-562 leukemia; greater than 100 µM in the assay with SK-MEL-2 melanoma; greater than 100 µM in the assay on CAKI-1 renal; greater than 100 µM in the assay with M14 melanoma; greater than 100 µM in the assay with HS 578T breast; > 100 µM and 19.8 µM in the assay on SK-MEL-5 melanoma. In the assay with MCF7 breast, this molecule yielded a TGI greater than 100 µM. Moreover, the GI50 with CAKI-1 renal is 6.34 µM; in the assay on HS 578T breast it was greater than 100 µM; in the assay on SK-MEL-5 melanoma, 4140 nM; in the assay with MCF7 breast, 15.3 µM.
`C=C1C(=O)O[C@@H]2[C@@H]3O[C@@](C)(CC/C=C(\C)CCC[C@@H]2C)[C@H](O)C[C@@H]13`: the GI50 was 3.1 µM with K-562 leukemia; 2410 nM with SK-MEL-2 melanoma; 1.73 µM with CAKI-1 renal; 1720 nM with M14 melanoma; 11.4 µM in the assay on HS 578T breast; 3.01 µM in the assay with CCRF-CEM leukemia. The GI50 with SK-MEL-5 melanoma is 1720 nM. For the same molecule, the TGI in the assay with K-562 leukemia is 9.58 µM; in the assay on SK-MEL-2 melanoma it was 4.85 µM; in the assay with CAKI-1 renal, 4.5 µM; with M14 melanoma, 3.48 µM; in the assay with HS 578T breast, greater than 100 µM; in the assay on CCRF-CEM leukemia, 21.3 µM. The TGI in the assay with SK-MEL-5 melanoma came out at 3.49 µM.
